Source: article PMC10060354, “Discovery of a small molecule ligand of FRS2 that inhibits invasion and tumor growth” (Cellular Oncology, 2022)

Legend:
[1] = molecular target: T1, FRS2_PTB (Homo sapiens, UniProt Q8WU20); test: nano differential scanning fluorimetry (nanoDSF); format: binding; settings: 500 μM ligand
T1 construct: FRS2-PTB 11-140aa; 6xHis; made in house; host or cells: E. coli BL21 (DE3)
T1 sequence (Q8WU20 11-140): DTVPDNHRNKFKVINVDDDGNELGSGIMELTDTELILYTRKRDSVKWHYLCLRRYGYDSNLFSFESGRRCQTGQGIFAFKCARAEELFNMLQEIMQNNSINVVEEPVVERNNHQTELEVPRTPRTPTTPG
Experimental: Assay establishment and pilot nanoDSF experiments were performed with a Tycho® system. Each experiment was performed by mixing the protein and ligand of interest at a 1:1 ratio and subsequent incubation for 15–30 min at room temperature. Controls of protein alone and ligand alone in identical buffer compositions as for the complex were measured accordingly. The temperature gradient ranged from 35 to 95 °C, and the heating rate was 30 °C/min. Inflection temperatures TI were calculated from the first derivative of the spectra obtained at the ratio of the signals at 350 nm to those at 330 nm. ΔTI of a complex was calculated as following: ΔTI,complex = TI,complex – TI,protein.
The in-built software version 1.1.5.668 (NanoTemper Technologies, Munich, Germany) and Microsoft Office Excel 365 (Microsoft Corp., Seattle, USA) was used for data analysis. Data was plotted with GraphPad Prism vers. 8.3.0 (GraphPad Software, San Diego, USA).
Purified FRS2_PTB or GB1_FRS2_PTB protein tagged with 6 × Histidine residues and the B1 immunoglobulin binding domain of the streptococcal protein G (GB1) were diluted in the protein buffer (100 mM sodium phosphate, 50 mM NaCl, 0.5 mM EDTA, 50 mM arginine, 1 mM TCEP, pH 7.0) to 30 μM, GB-1 to 40 μM. FGFR_PEP, compounds or paracetamol (PARA) as negative control were dissolved at 1 mM in the protein buffer supplemented with 10% DMSO. Compound and protein were mixed at 1:1 volume ratio yielding a final concentration of 15 μM and 20 μM for FRS2_PTB/GB1_FRS2_PTB and GB1, respectively, as well as 500 μM for FGFR_PEP or compounds. The mixture was incubated for 15 min. Each compound was measured in triplicates. Protein controls were measured in six replicates in the beginning. The quality of the screen was assessed by the Z-factor. nanoDSF validation studies were performed on a Prometheus® system in high sensitivity capillaries. Samples were heated with 1 °C/min from 20 to 95 °C. Each compound was measured in triplicates. GB1-FRS2_PTB and GB1 were diluted in the protein buffer (100 mM sodium phosphate, 50 mM NaCl, 0.5 mM EDTA, 50 mM arginine, 1 mM TCEP, pH 7.0) to 30 μM. Compounds 3.3, 3.4, 3.18 as well as the 3.18 analogues were dissolved in 100% DMSO at 50 or 100 mM and further diluted to 1 mM with a final DMSO-concentration of 100%. FGFR_PEP was dissolved at 1 mM in the protein buffer supplemented with 10% DMSO. Compound and protein were mixed at 1:1 volume ratio yielding final concentrations of 15 μM protein and 500 μM for the compounds. FGFR_PEP was measured against both GB1-FRS2_PTB and GB1, all other compounds only against GB1-FRS2_PTB. The mixture was incubated for 15 min before measurement. The data was analyzed for both the ratio of signals at 330 and 350 nm and at 350 nm alone. […]

[2] = molecular target: T2, GB1-FRS2-PTB (Homo sapiens, UniProt Q8WU20); test: NMR STD and WaterLOGSY ligand observation; format: binding; settings: 25 µM GB1-FRS2-PTB, 500 µM ligand, 280 K
T2 construct: FRS2-PTB 11-140aa; 6xHis (N); made in house; host or cells: E. coli BL21 (DE3)
T2 sequence (Q8WU20 11-140): T1 sequence (Q8WU20 11-140)
Experimental: STD and WaterLOGSY experiments were measured at 7 °C on a Bruker AvNEO 600 spectrometer equipped with a TCI cryoprobe. In the STD experiments saturation was achieved by applying a series of Gaussian-shaped pulses at a RF field strength of 54 Hz (max.) for 3 s at -0.5 ppm (-40 ppm for the reference experiment) and 512 scans were accumulated. The WaterLOGSY was measured with 256 scans and a mixing time of 1.5 s. A 7.5 ms Gaussian-shaped 180° pulse was used to control the water magnetization. For both experiments samples of 25 µM GB1-FRS2_PTB with a 20-fold excess of ligand (500 µM) were used or with the ligand alone for the control experiment.

[3] = tested on: Caco-2 cells; test: CaCo-2 permeability (bi-directional); settings: Direction A2B
In short: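 Caco-2 monolayers (passage 40–60) cultured 20 days on Transwells, equilibrated 40 min in HBSS; compound dosed apically (A-B) or basolaterally (B-A) with 1% v/v DMSO and lucifer yellow integrity marker, in duplicate. LC–MS/MS quantification; Papp from permeation rate, C0 and monolayer area; efflux ratio = Papp(B-A)/Papp(A-B).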

SMILES | nanoDSF shift of the inflection point of the melting curve (ΔTm) [1] [°C] | binding to the PTB domain by STD and WaterLOGSY (result in words) [2] | Comments: A2B permeation (result in words) [3]
CC(C)C[C@@H](CO)NCc1cc(O)c2cc(F)ccc2n1 [Compound 3.14] | > 2.0 | clearly demonstrated binding | –
O=[N+]([O-])c1c(Cl)cc(O)c2c1C1C=CCC1C(c1ccc(Cl)cc1Cl)N2 (stereo not drawn) [Compound 8] | – | – | Test compound not detectable in receiver compartments A2B.
N#Cc1c(Cl)cc(O)c2c1C1C=CCC1C(c1ccc(Cl)cc1)N2 (stereo not drawn) [Compound 14] | – | – | Test compound not detectable in receiver compartments A2B.

Now from value to molecule, other results behind:

nanoDSF shift of the inflection point of the melting curve (ΔTm) [1] [°C] | binding to the PTB domain by STD and WaterLOGSY (result in words) [2] | SMILES | Comments: A2B permeation (result in words) [3]
~1.5 | – | COc1ncc(C(C)NC2CC(C)(C)NC(C)(C)C2)cc1Cl (stereo not drawn) [Compound 3.3] | –
– | clearly demonstrated binding | O=C(O)c1c(Cl)cc(O)c2c1C1C=CCC1C(c1ccc(Cl)cc1)N2 (stereo not drawn) [Compound 13] | –
